# Laboratory results: patent US12319655B2, “RAF kinase inhibitors and methods of use thereof” (Deciphera Pharmaceuticals, LLC, priority 2021, dated 2025)
# Legend:
# [1] = target: A-Raf kinase (SEQ. ID No: 1) (Homo sapiens (Human), UniProt P10398, Y301D/Y302D); assay: Biochemical Assay for A-Raf (1); details: Table J, assay version (1); read-out: ARAF (1) IC50
# Procedure, shortened: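 IC50 values were derived by four-parameter sigmoidal fitting of percent inhibition, calculated from reaction rates over the 4–5 h window. Absorbance at 340 nm was tracked for 6 h at 30 °C via coupled PK/LDH NADH depletion. Conditions: 1 mM ATP, 30.1 nM MEK substrate, 5.55 nM A-Raf (Y301D/Y302D), Tris pH 7.5, 1% DMSO.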
# Miapaca-2 cells = assay: MiaPaca-2 Cell Proliferation Assay (1); type: cell-based; details: Homo sapiens, MIA PaCa-2, single agent, read-out: MiaPaca2 (1) IC50
# Procedure, shortened: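 Resazurin was added after compound exposure and incubated 5-6 h, then fluorescence read at 540 nm excitation and 600 nm emission to give IC50.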
# WM3928 cells = assay: WM3928 Cell Proliferation Assay (1); type: cell-based
# Procedure, shortened: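 IC50 was derived from resazurin fluorescence (ex 540, em 600 nm) after a 6–7 h dye incubation. Before that, cells had 67–72 h of compound exposure at 37 °C, 5% CO2.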
# H2405 cells = assay: H2405 Cell Proliferation Assay (1); type: cell-based; details: Homo sapiens, NCI-H2405
# Procedure, shortened: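 Viability was read by resazurin reduction (ex 540 nm, em 600 nm; 5-6 h with 40 μL of 440 μM stock) after 67-72 h compound exposure at 37 °C.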
# Chain of A-Raf kinase (SEQ. ID No: 1) (P10398 other isoform, or with tags, fused parts or gaps Y301D (already in the parent)/Y302D (already in the parent)): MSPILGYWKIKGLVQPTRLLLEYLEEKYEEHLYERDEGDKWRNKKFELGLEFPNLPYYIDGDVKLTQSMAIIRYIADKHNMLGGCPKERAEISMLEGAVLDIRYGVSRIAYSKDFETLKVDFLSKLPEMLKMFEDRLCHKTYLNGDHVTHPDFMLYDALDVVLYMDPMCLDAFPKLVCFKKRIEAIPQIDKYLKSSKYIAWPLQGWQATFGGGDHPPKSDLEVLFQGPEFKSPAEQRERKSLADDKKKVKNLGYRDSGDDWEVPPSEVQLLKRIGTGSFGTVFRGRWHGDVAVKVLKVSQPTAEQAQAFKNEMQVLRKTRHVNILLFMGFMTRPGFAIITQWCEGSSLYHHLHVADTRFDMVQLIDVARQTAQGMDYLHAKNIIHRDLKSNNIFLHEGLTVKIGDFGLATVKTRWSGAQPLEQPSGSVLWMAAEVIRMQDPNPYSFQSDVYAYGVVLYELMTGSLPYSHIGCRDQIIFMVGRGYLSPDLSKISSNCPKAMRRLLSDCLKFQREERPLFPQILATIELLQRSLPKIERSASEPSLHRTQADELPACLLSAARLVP
SMILES,IC50 [1] [nM],IC50 (Miapaca-2 cells) [nM],IC50 (H2405 cells) [nM],IC50 (WM3928 cells) [nM]
"CC(=O)Nc1cc(-c2cc(-c3cc(NC(=O)c4ccnc(C(F)(F)F)c4)ccc3C)cn(C)c2=O)ccn1 [Example 21, N-(3-(2′-acetamido-1-methyl-2-oxo-1,2-dihydro-[3,4′-bipyridin]-5-yl)-4-methylphenyl)-2-(trifluoromethyl)isonicotinamide]",1000 to 10000,1000 to 10000,–,–
CC(=O)Nc1cc(-c2nccc(-c3cc(NC(=O)c4ccnc(C(F)(F)F)c4)ccc3C)n2)ccn1 [Example 24],500 to 1000,1000 to 10000,–,≤ 100
CNC(=O)c1cc(-c2nccc(-c3cc(NC(=O)c4ccnc(C(F)(F)F)c4)ccc3C)n2)ccn1 [Example 25],1000 to 10000,1000 to 10000,–,500 to 1000
CC(=O)Nc1cc(-c2cc(-c3cc(C(=O)Nc4ccnc(C(F)(F)F)c4)ccc3C)ccn2)ccn1 [Example 26],1000 to 10000,1000 to 10000,–,–
CC(=O)Nc1cc(-c2cccc(-c3cc(NC(=O)c4ccnc(C(F)(F)F)c4)ccc3C)c2)ccn1 [Example 28],500 to 1000,1000 to 10000,–,–
CNC(=O)c1cc(-c2cc(-c3cc(C(=O)Nc4ccnc(C(F)(F)F)c4)ccc3C)ccn2)ccn1 [Example 31],1000 to 10000,1000 to 10000,–,–
Cc1ncc(NC(=O)c2cn(C(C)C)nn2)cc1-c1nccc(-c2ccnc(NC(=O)C3CC3)c2)n1 [Example 285],1000 to 10000,–,1000 to 10000,1000 to 10000
Cc1ncc(NC(=O)c2cnnc(C3CC3)c2)cc1-c1nccc(-c2ccnc(NC(=O)C3CC3)c2)n1 [Example 294],1000 to 10000,–,100 to 500,–
COC(=O)Nc1cc(-c2cc(-c3cc(NC(=O)c4ccnc(C(C)(C)F)c4)c(F)cc3C)ccn2)ccn1 [Example 302],1000 to 10000,–,100 to 500,≤ 100
COC(=O)Nc1cc(-c2nccc(-c3cc(NC(=O)c4ccnc(C(C)(C)C#N)c4)c(F)cc3C)n2)ccn1 [Example 303],1000 to 10000,–,≤ 100,≤ 100
COC(=O)Nc1cc(-c2cnnc(-c3cc(NC(=O)c4ccnc(C(C)(C)C#N)c4)cnc3C)c2)ccn1 [Example 306],1000 to 10000,1000 to 10000,1000 to 10000,–
CNC(=O)c1cc(-c2cnnc(-c3cc(NC(=O)c4ccnc(C(C)(C)F)c4)cnc3C)c2)ccn1 [Example 309],1000 to 10000,1000 to 10000,1000 to 10000,–
Cc1ncc(NC(=O)c2ccnc(C(C)(C)F)c2)cc1-c1cc(-c2ccnc(NC(=O)C3CC3)c2)cnn1 [Example 310],1000 to 10000,1000 to 10000,100 to 500,–
COC(=O)Nc1cc(-c2cnnc(-c3cc(NC(=O)c4cccc(C(C)(C)C#N)c4)ccc3C)c2)ccn1 [Example 311],1000 to 10000,–,100 to 500,–
CNC(=O)c1cc(-c2cnnc(-c3cc(NC(=O)c4ccnc(C(C)(C)C#N)c4)ccc3C)c2)ccn1 [Example 314],1000 to 10000,–,500 to 1000,500 to 1000
CNC(=O)c1cc(-c2cnnc(-c3cc(NC(=O)c4ccnc(C(F)(F)F)c4)cnc3C)c2)ccn1 [Example 318],1000 to 10000,–,1000 to 10000,–

SMILES,IC50 [1] [nM],IC50 (Miapaca-2 cells) [nM],IC50 (H2405 cells) [nM],IC50 (WM3928 cells) [nM]
COC(C)(C)c1cc(C(=O)Nc2ccc(C)c(-c3cc(-c4ccnc(NC(=O)C5CC5)c4)cnn3)c2)ccn1 [Example 319],1000 to 10000,–,≤ 100,–
Cc1ccc(NC(=O)c2cn(C(C)C)nn2)cc1-c1cc(-c2ccnc(NC(=O)C3CC3)c2)cnn1 [Example 320],1000 to 10000,–,1000 to 10000,1000 to 10000
CNC(=O)c1cc(-c2cnnc(-c3cc(NC(=O)c4ccc(Cl)c(OC)c4)cnc3C)c2)ccn1 [Example 322],1000 to 10000,–,1000 to 10000,–
CNC(=O)c1cc(-c2cnnc(-c3cc(NC(=O)c4ccnc(C(F)F)c4)ccc3C)c2)ccn1 [Example 327],1000 to 10000,–,1000 to 10000,1000 to 10000
Cc1ccc(NC(=O)c2ccnc(C3CC3)c2)cc1-c1cc(-c2ccnc(NC(=O)C3CC3)c2)cnn1 [Example 331],1000 to 10000,–,100 to 500,500 to 1000
Cc1ccc(NC(=O)c2ccnc(S(C)(=O)=O)c2)cc1-c1cc(-c2ccnc(NC(=O)C3CC3)c2)cnn1 [Example 332],1000 to 10000,–,1000 to 10000,1000 to 10000
CNC(=O)c1cc(-c2cnnc(-c3cc(NC(=O)CCC(C)(C)C#N)cnc3C)c2)ccn1 [Example 333],1000 to 10000,–,1000 to 10000,–
CO[C@H]1CC[C@H](C(=O)Nc2ccc(C)c(-c3ccnc(-c4ccnc(NC(=O)C5CC5)c4)n3)c2)CC1 [Example 341],1000 to 10000,–,–,1000 to 10000
Cc1ccc(NC(=O)C2CN(C)CCO2)cc1-c1cccc(-c2cc(NC(=O)C3CC3)ncn2)c1 (stereo not drawn) [Example 346],1000 to 10000,–,1000 to 10000,–
COC(=O)Nc1cc(-c2cnnc(-c3cc(NC(=O)CN4CCCC4)cnc3C)c2)ccn1 [Example 359],1000 to 10000,–,1000 to 10000,–
COC(=O)Nc1cc(-c2cnnc(-c3cc(NC(=O)COCC4CC4)ccc3C)c2)ccn1 [Example 360],1000 to 10000,–,1000 to 10000,1000 to 10000
COC(=O)Nc1cc(-c2cnnc(-c3cc(NC(=O)c4ccnc(C(F)F)c4)cnc3C)c2)ccn1 [Example 363],1000 to 10000,–,1000 to 10000,–
CNC(=O)c1cc(-c2cnnc(-c3cc(NC(=O)c4cn(C(C)(C)C)nn4)ccc3C)c2)ccn1 [Example 366],1000 to 10000,–,1000 to 10000,–
COC(=O)Nc1cc(-c2cnnc(-c3cc(NC(=O)CC4CCCC4)cnc3C)c2)ccn1 [Example 368],1000 to 10000,–,1000 to 10000,–
Cc1ccc(NC(=O)c2ccnc(C(C)(C)C#N)c2)cc1-c1cc(-c2ccnc3[nH]ccc23)cnn1 [Example 369],1000 to 10000,–,500 to 1000,–

# Further lines, with some results ahead:
IC50 [1] [nM],IC50 (Miapaca-2 cells) [nM],IC50 (H2405 cells) [nM],SMILES,IC50 (WM3928 cells) [nM]
1000 to 10000,1000 to 10000,–,Cc1ccc(NC(=O)c2ccnc(C(C)(C)C#N)c2)cc1-c1nccc(-c2ccnc3c2CC(=O)N3)n1 [Example 22],≤ 100
1000 to 10000,–,100 to 500,COC(=O)Nc1cc(-c2cc(-c3cc(NC(=O)c4ccnc(C(F)F)c4)cnc3C)ccn2)ccn1 [Example 313],1000 to 10000
500 to 1000,–,≤ 100,Cc1ccc(NC(=O)c2ccnc(C(C)(C)F)c2)cc1-c1cc(-c2ccnc(NC(=O)C3CC3)c2)cnn1 [Example 315],≤ 100
1000 to 10000,–,1000 to 10000,CNC(=O)c1cc(-c2cnnc(-c3cc(NC(=O)c4ccnc(C(C)(C)C#N)c4)cnc3C)c2)ccn1 [Example 316],–
1000 to 10000,–,1000 to 10000,CNC(=O)c1cc(-c2cnnc(-c3cc(NC(=O)c4ccnc(C5CC5)c4)cnc3C)c2)ccn1 [Example 317],–
1000 to 10000,–,100 to 500,Cc1ccc(NC(=O)c2cnn(C(C)(C)C)c2)cc1-c1cc(-c2ccnc(NC(=O)C3CC3)c2)cnn1 [Example 321],100 to 500
1000 to 10000,–,100 to 500,COC(=O)Nc1cc(-c2cc(-c3cc(NC(=O)c4ccnc(C(C)(C)F)c4)cnc3C)ccn2)ccn1 [Example 323],100 to 500
1000 to 10000,–,100 to 500,CNC(=O)c1cc(-c2cnnc(-c3cc(NC(=O)c4ccnc(C(C)(C)F)c4)ccc3C)c2)ccn1 [Example 325],500 to 1000
1000 to 10000,–,1000 to 10000,CNC(=O)c1cc(-c2cnnc(-c3cc(NC(=O)c4ccnc(C5CC5)c4)ccc3C)c2)ccn1 [Example 326],1000 to 10000
1000 to 10000,–,100 to 500,CNC(=O)c1cc(-c2cnnc(-c3cc(NC(=O)c4ccnc(C(C)(C)OC)c4)ccc3C)c2)ccn1 [Example 328],1000 to 10000
1000 to 10000,–,500 to 1000,CNC(=O)c1cc(-c2cnnc(-c3cc(NC(=O)c4ccc(F)c(C(F)(F)F)c4)ccc3C)c2)ccn1 [Example 329],1000 to 10000
1000 to 10000,–,1000 to 10000,CNC(=O)c1cc(-c2cnnc(-c3cc(NC(=O)c4ccnc(C(F)F)c4)cnc3C)c2)ccn1 [Example 330],–
1000 to 10000,–,1000 to 10000,CO[C@H]1CC[C@H](C(=O)Nc2cnc(C)c(-c3cccc(-c4cc(NC(=O)C5CC5)ncn4)c3)c2)CC1 [Example 347],–
1000 to 10000,–,1000 to 10000,CNC(=O)c1cc(-c2cc(-c3cc(NC(=O)CCC(C)(C)C#N)ccc3C)ccn2)ccn1 [Example 357],–
1000 to 10000,–,1000 to 10000,CNC(=O)c1cc(-c2cc(-c3cc(NC(=O)COCC4CC4)ccc3C)ccn2)ccn1 [Example 358],1000 to 10000
1000 to 10000,–,500 to 1000,COC(=O)Nc1cc(-c2cnnc(-c3cc(NC(=O)c4ccnc(C(C)(C)F)c4)cnc3C)c2)ccn1 [Example 361],–
1000 to 10000,–,1000 to 10000,COC(=O)Nc1cc(-c2cnnc(-c3cc(NC(=O)c4ccnc(C5CC5)c4)cnc3C)c2)ccn1 [Example 362],–
1000 to 10000,–,1000 to 10000,COCCNC(=O)c1cc(-c2cnnc(-c3cc(NC(=O)c4cccc(C5CC5)c4)ccc3C)c2)ccn1 [Example 365],–
1000 to 10000,–,100 to 500,Cc1ccc(NC(=O)c2cc(C(C)(C)C)no2)cc1-c1cc(-c2ccnc(NC(=O)C3CC3)c2)cnn1 [Example 367],–
1000 to 10000,–,1000 to 10000,Cc1ccc(NC(=O)c2ccnc(C(C)(C)C#N)c2)cc1-c1cc(-c2ccnc(C(=O)NC3CC3)c2)cnn1 [Example 372],–
